Structures are written as SMILES. Several values for one entry are separate records, joined by “and”; a condition that tells them apart may be missing. Equal values may be shown once.

From US8735622B2, “Histone demethylase inhibitors and methods for using the same” (The Regents of the University of Colorado, a body corporate, priority 2011, dated 2014) come the findings set out here.

One assay deals with T1, GST-fused GASC1(1-420) (Homo sapiens, UniProt Q9H3R0).
T1 construct: corresponding to amino acid 1-420 was cloned and purified; made in house; host or cells: Escherichia coli BL-21
T1 sequence (Q9H3R0 1-420): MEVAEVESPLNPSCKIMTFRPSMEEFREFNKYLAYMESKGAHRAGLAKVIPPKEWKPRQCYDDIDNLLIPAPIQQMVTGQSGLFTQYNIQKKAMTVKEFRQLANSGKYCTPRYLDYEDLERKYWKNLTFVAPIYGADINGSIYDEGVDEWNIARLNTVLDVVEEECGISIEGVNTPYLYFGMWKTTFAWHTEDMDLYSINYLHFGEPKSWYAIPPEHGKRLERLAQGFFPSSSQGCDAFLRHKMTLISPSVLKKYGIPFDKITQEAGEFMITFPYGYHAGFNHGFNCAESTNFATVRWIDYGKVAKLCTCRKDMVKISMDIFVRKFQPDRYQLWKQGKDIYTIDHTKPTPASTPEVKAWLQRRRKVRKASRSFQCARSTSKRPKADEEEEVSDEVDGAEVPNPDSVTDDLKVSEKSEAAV
As to the kind of experiment: GASC1 enzyme inhibition assay with MS detection. Format: biochemical. Conditions: 1 μM and 5 μM, 2 hours. The method, then: Synthetic histone peptides H3K9me3 were incubated with purified GST-tagged GASC1(1-420) in demethylation buffer (50 mM Tris pH 8.0, 2 mM ZnCl2, 1 mM alpha-ketoglutarate, 50 μM FeSO4, 1 mM ascorbic acid) at 37° C. In a typical reaction, 2 μg of modified histone peptides were incubated with 20 μg GST-GASC1(1-420) in a total volume of 40 μL, for 2 hours. Reaction mixtures were concentrated and re-dissolved in 50% methanol in water with 0.1% formic acid followed by ESI-TOF analysis using ABI Q-Star Pulsar.

Another assay deals with T2, JMJD2A (Homo sapiens, UniProt O75164).
T2 construct: Recombinant protein preparation of GASC1(1-420), JMJD2A (1-420) and LSD1 (full-length); made in house; host or cells: Escherichia coli BL-21
T2 sequence (O75164 1-420): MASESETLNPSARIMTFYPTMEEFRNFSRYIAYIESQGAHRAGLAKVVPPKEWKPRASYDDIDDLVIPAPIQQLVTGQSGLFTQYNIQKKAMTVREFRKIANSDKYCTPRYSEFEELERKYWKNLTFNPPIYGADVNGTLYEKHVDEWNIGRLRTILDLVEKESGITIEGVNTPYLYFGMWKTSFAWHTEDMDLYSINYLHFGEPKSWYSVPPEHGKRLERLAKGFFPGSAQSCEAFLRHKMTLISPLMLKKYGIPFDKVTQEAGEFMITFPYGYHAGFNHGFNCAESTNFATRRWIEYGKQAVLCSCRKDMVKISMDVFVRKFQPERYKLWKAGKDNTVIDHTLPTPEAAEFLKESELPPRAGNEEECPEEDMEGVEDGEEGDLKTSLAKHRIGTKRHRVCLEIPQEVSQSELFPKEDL
The experiment in a line: JMJD2A enzyme activity assay (DELFIA). Format: biochemical. The note with it: DELFIA. The method, then: (§1) In order to evaluate the inhibitory activity of 1 in vitro, a GST-fusion protein of the catalytic N-terminus of human GASC1 (gene amplified in squamous cell carcinoma 1) corresponding to amino acid 1-420 was cloned and purified. […] To evaluate the enzyme specificity of 1, the activity of 1 was examined against several other related enzymes in vitro.
(§2) The enzyme activity assays for GASC1 and JMJD2A were established on the DELFIA platform. DELFIA assays were performed in white, opaque 384-well plates coated with Streptavidin (Perkin Elmer). GST-GASC1(1-420) was diluted to 200 ng/well in 20 mM Tris HCl pH 8.5/2 mM glutathione and added in a volume of 20 μL. Blank wells received Tris/glutathione buffer only. Test compounds were diluted in DMSO and […] was pinned into the wells. Blank and control wells received only compound buffer. The reactions were initiated by the addition of 500 nM biotin-H3(1-20)K9me3 substrate, 10 μM FeSO4, 100 μM alpha-ketoglutarate in a volume of 20 μL, and incubated at room temperature for 60 minutes. The plates were washed 3 times with 100 μL of Wash Buffer (50 mM Tris pH 7.4, 150 mM NaCl, 0.05% Tween 20, 0.2% BSA). […] Time resolved fluorescence was measured after 45 minutes on an Envision Microplate Imager (Perkin Elmer Life Sciences) with 400 μs delay, excitation at 360 nm, and emission at 620 nm.

The test system of the next assay is KYSE150 cells. As to the kind of experiment: Cell viability / growth inhibition assay (CellTiter-Glo). It is filed as cell-based, human. The note with it: 48 hours; compound 1 at up to 100 μM. The text has this: To examine the cellular activity of the compounds of the invention, oesophageal carcinoma cell line KYSE150 was used in a growth inhibition assay because KYSE150 cells have been reported to contain several copies of the GASC1 gene, and it has been reported that inhibition of GASC1 expression using short hairpin RNA causes a significant reduction of proliferation in KYSE150 cells. […] Without being bound by any theory, it is believed that this low activity in cells was possibly due to the poor cellular uptake of the zwitterion form in which it typically exists under physiological conditions. Therefore, its methyl ester prodrug 2 (FIG. 1a), called methylstat was tested.
To screen and validate the cellular toxicity of compounds, a cell viability assay was carried out using CellTiter-Glo luminescent cell viability assay kit (Promega, Madison USA). KYSE150 cells were seeded on blank-walled 384-well plates with KYSE medium at densities of 1,000 cells/well. The medium volume for each well was 40 μL. Cells were incubated at 37° C. in 5% CO2/95% air for 24 hours. The medium was removed from each well and replaced with 38 μL, of warmed fresh medium and 2 μL, compound solution in 2% DMSO/98% H2O. The compounds were added into medium at different concentrations with the final concentration of DMSO as 0.1%. After incubation at 37° C. with 5% CO2/95% air for another 48 hours, the plates were equilibrated to room temperature for 30 minutes. 40 μL, of CellTiter-Glo reagent (Promega, Madison USA) was added to each well and mixed for 2 minutes on an orbital shaker. The plate was incubated at room temperature for another 10 minutes to stabilize luminescent signal. The luminescence of each sample was measured in a plate-reading illuminometer (Beckman Coulter DTX 880) with parameters of 1-minute lag time and 0.1 second/well read time. The experiments were performed in triplicate and repeated on two separately initiated cultures.
(In ATP-based viability assays light output follows the ATP content of the culture.)

For assay [1], the target named is T3, human GASC1 (GST-GASC1(1-420)) (Homo sapiens, UniProt Q9H3R0).
T3 construct: corresponding to amino acid 1-420 was cloned and purified; made in house; host or cells: Escherichia coli BL-21
T3 sequence (Q9H3R0 1-420): T1 sequence (Q9H3R0 1-420)
The experiment in a line: GASC1 enzyme activity assay (DELFIA). Format: biochemical. The note with it: DELFIA, H3K9me3 peptide substrate. The method, then:
as §1, §2

The target of the next assay is T4, LSD1 (Homo sapiens, UniProt O60341).
T4 construct: LSD1 (full-length) was expressed as glutathione S-transferase (GST) fusions; made in house; host or cells: Escherichia coli BL-21
As to the kind of experiment: LSD1 formaldehyde dehydrogenase coupled assay. It is filed as biochemical. Conditions: in vitro. The method, then: LSD1 activity was measured in a formaldehyde dehydrogenase coupled assay. 15 μL enzyme mix containing 2.4 μg GST-LSD1 in 20 mM TRIS pH 8.5, 1 mM NAD, 1.5 mU formaldehyde dehydrogenase, 0.5 mM glutathione was added, followed by pin transfer of 100 nL compound. Then reactions were started by addition of 15 μL 75 μM H3(1-20)K4me2 peptide, and NADH fluorescence was measured on a Envision Microplate Imager (Perkin Elmer Life Sciences) with excitation at 345 nm and emission at 460 nm, integration for 400 ms at 10 min and 80 min after peptide addition.

A further assay has as its system HDACs. As to the kind of experiment: Histone deacetylases (HDACs) enzyme inhibition assay (Fluor de Lys). Format: biochemical. The note with it: in vitro. As for the experimental part:
The enzyme activity assay for HDAC was carried out using Fluor de Lys Fluorescent Assay System (BML-AK500, Enzo Life Sciences Inc, NY USA). The assay was performed as the manufactory guide in white 384-well plates. Time resolved fluorescence was measured on a Beckman Coulter DTX 880 plate reader with 250 ms delay, excitation at 360 nm, and emission at 530 nm.

What is called IC50 is the concentration that inhibits the measured activity by half. A higher IC50 goes with weaker potency. As for `O=C(O)/C=C/C(=O)N(O)CCCCNCc1ccc(COC(=O)Nc2cccc3ccccc23)cc1` [Compound 1], at GST-fused GASC1(1-420), the “inhibition of GASC1-mediated demethylation of H3K9me3 peptide (mass spectrum)” value is “inhibited GASC1-mediated demethylation of H3K9me3 peptides”. Besides, the IC50 is ~3.4 µM and 3.4 µM at JMJD2A; ~4.3 µM and 4.3 µM in assay [1]. Also, in the assay on KYSE150 cells, the “KYSE150 cell growth inhibition” value is given as “did not show significant growth inhibition”. For the same compound, the “inhibition of FAD-dependent HDM LSD1” value at LSD1 is “did not significantly inhibit”. Moreover, the “inhibition of histone deacetylases (HDACs)” value with HDACs is given as “did not significantly inhibit”.
